# US20160038411A1, “PULSATILE GASTRIC RETENTIVE DOSAGE FORMS” (Depomed, Inc., priority 2007, published 2016)
# Where two headings read alike, the source gives them in different places.
# Tests used:
# nocturnal heartburn = details: cited from earlier work
# [1] = test system: NAB (intra-gastric pH<4 for more than 1 hour between 22:00 and 06:00); assay: Two-period crossover study in GERD patients: ambulatory 24-hour gastric pH, NAB; format: in vivo, human
# Protocol: (§1) Sixteen patients with a history of GERD, all of whom experienced recurrent nighttime reflux for at least three months while taking proton pump inhibitors, were enrolled. The study was an open label crossover study in which 14 of the 16 patients participated in each of two treatment arms separated by a washout period. […] Ambulatory 24-hour gastric pH was recorded and blood samples taken for PK analysis on days 6-7. Following a seven day washout the patients were crossed over to the alternate treatment. NAB was defined as an intra-gastric pH<4 for more than 1 hour between 22:00 hour and 06:00 hour (10:00 PM and 6:00 AM).
# pH of the stomach = details: cited from earlier work
# basal acid output = details: 20 mg dose, healthy volunteers and patients, cited from earlier work
# [2] = pH 11 phosphate buffer; cited from earlier work
# [3] = Four-way crossover pharmacokinetic study of omeprazole (limited colonic absorption); format: in vivo; details: human, plasma, 20 mg; for AUC: mean±SD
# From the text: Nine healthy subjects were entered into the study with an intention to complete treatment of at least six subjects. […] A period of at least four days for washout was allowed between dosing.
# [4] = Two-period crossover study in GERD patients: plasma omeprazole PK; format: in vivo, human; details: for AUC: human, plasma, oral, read-out: median AUC (25-75%)
# Protocol: as §1, with “enrolled.” for “enrolled. The study was an open label crossover study in which 14 of the 16 patients participated in each of two treatment arms separated by a washout period.”
compound,measurement,setting,value
COc1ccc2nc([S@@+]([O-])Cc3ncc(C)c(OC)c3C)[nH]c2c1 [esomeprazole],GERD patients with relief of nocturnal heartburn,nocturnal heartburn,50%
"COc1ccc2[nH]c([S+]([O-])Cc3ncc(C)c(OC)c3C)nc2c1 (stereo not drawn) [omeprazole, 5-methoxy-2-[[(4-methoxy-3,5-dimethyl-2-pyridinyl)methyl]sulfinyl]-1H-benzimidazole]",patients who experienced inhibition of NAB,"[1]; 20 mg at dinner + 20 mg 4 hours later, the 9 patients with two-dose absorption profile (FIG. 7A)",100%
same,occurrence of NAB,"[1]; 40 mg single dose 30 minutes before dinner for six days, 14 patients",Three of the patients experienced NAB
same,occurrence of NAB,"[1]; two dose arm, nine patients who achieved blood levels from both doses",none experienced NAB
same,occurrence of NAB,"[1]; two dose arm, the five patients with delayed absorption",All five of those patients experienced NAB
same,"nighttime pH control of the stomach, time with pH>4",pH of the stomach; 40 mg before breakfast,24 % of the time
same,"nighttime pH control of the stomach, time with pH>4",pH of the stomach; 40 mg before dinner,69 % of the time
same,"nighttime pH control of the stomach, time with pH>4","pH of the stomach; twice-daily (BID) dosing, 20 mg before breakfast and dinner",80 % of the time
same,decrease in basal acid output,basal acid output; 2-6 hours after dosing,78%
same,decrease in basal acid output,basal acid output; 24 hours after dosing,50%-80%
same,stability at pH 11,[2],stable at pH 11
same,AUC,"[3]; iv, (iv) 20 mg omeprazole delivered to the ascending colon via ENTERION capsule",242 ± 323 ng·h/mL
same,Tmax,"[3]; iv, (iv) Colonic",1.8 h
same,bioavailability,"[3]; iv, (iv) Colonic, compared to fasted state, read-out: Relative bioavailability",22 ± 12%
same,bioavailability,"[3]; oral, 20 mg fed, one of the subjects removed from the analysis, read-out: relative bioavailability in the fed state compared to fasting",96 ± 7%
same,Tmax,"[3]; oral, (i) SCR",4.9 h
same,bioavailability,"[3]; oral, (i) SCR, fed state, compared to fasted state, read-out: Relative bioavailability",61 ± 15%
same,AUC,"[3]; oral, (i) SCR: 20 mg omeprazole divided into 17 doses at 30 minute intervals (8 hr), fed state, n = 7",568 ± 727 ng·h/mL
same,AUC,"[3]; oral, (ii) 20 mg omeprazole in the fed state, n = 7",849 ± 999 ng·h/mL
same,Tmax,"[3]; oral, (ii) Fed",3.7 h
same,bioavailability,"[3]; oral, (ii) Fed, compared to fasted state, read-out: Relative bioavailability",90 ± 16%
same,AUC,"[3]; oral, (iii) 20 mg omeprazole in the fasted state, n = 7",969 ± 1090 ng·h/mL
same,bioavailability,"[3]; oral, (iii) Fasted (reference arm), read-out: Relative bioavailability",100%
same,bioavailability,"[3]; other: ENTERION capsule activated in the terminal ileum, one subject, ENTERION capsule activated in the terminal ileum, read-out: relative bioavailability compared to fasted state",58%
same,patients who did not start absorbing omeprazole until 4-5 hours after the initial dose,"[4]; 20 mg at dinner + 20 mg 4 hours later, of the 14 patients (FIG. 7B)",36%
same,blood levels of omeprazole between 2:00 and 3:00 AM,"[4]; 40 mg single dose arm, the three patients who experienced NAB",undetectable levels
same,time until start of omeprazole absorption after the initial 20 mg dose,[4]; five of the 14 patients of the two dose arm (FIG. 7B),4 to 5 h
same,AUC,"[4]; 20 mg at dinner + 20 mg four hours later for six days, all patients, n = 14",1860 ng·h/mL
same,AUC,"[4]; 20 mg at dinner + 20 mg four hours later, patients with NAB (n = 5)",1670 ng·h/mL
same,AUC,"[4]; 20 mg at dinner + 20 mg four hours later, patients without NAB (n = 9)",1910 ng·h/mL
